The record followed here is the NIST ThermoML archive (doi:10.1021/je100095p).

A short description of series [1]: excess molar enthalpy (molar enthalpy of mixing); xn = mol fraction of the nth substance listed. The note with it: 298.15 K, 101 kPa, Liquid, Calvet calorimetry.
The conditions of series [2]: 298.15 K; 101.33 kPa; Liquid; Vibrating tube method.
Series [3] can be described thus: refractive index (Na D-line) (dimensionless). Conditions: 298.15 K; 101.33 kPa; Liquid; Standard Abbe refractometry.

Structures are written as SMILES. Numbers after ± are expanded uncertainties.

In the case of `OCc1ccccc1` [benzenemethanol] + CCCCO, the excess molar enthalpy in series [1] (x1 = 0.0976) amounted to 0.0849 ± 0.0022 kJ/mol; in series [1] (x1 = 0.1973), 0.149 ± 0.0035 kJ/mol; in series [1] (x1 = 0.295) it was 0.196 ± 0.0044 kJ/mol; in series [1] (x1 = 0.396) it was 0.221 ± 0.005 kJ/mol; in series [1] (x1 = 0.4931), 0.231 ± 0.0052 kJ/mol; in series [1] (x1 = 0.6029) it was 0.212 ± 0.0048 kJ/mol. The figures for the excess molar enthalpy in series [1] (x1 = 0.7039), in series [1] (x1 = 0.8026) and in series [1] (x1 = 0.9017) were 0.179 ± 0.0041 kJ/mol, 0.133 ± 0.0031 kJ/mol and 0.0726 ± 0.0019 kJ/mol, respectively.

Turning to `CO` [methanol], the mass density (in general, the mass of a sample divided by its volume) in series [2] turned out to be 786.5 ± 0.15 kg/m3. In addition, the refractive index (usually the speed of light in vacuum divided by its phase velocity in the sample) in series [3] amounted to 1.3266 ± 0.0005.

For the compound `OCc1ccccc1` [benzenemethanol] + CO, the excess molar enthalpy was -0.0152 ± 0.0009 kJ/mol in series [1] (x1 = 0.07); -0.0334 ± 0.0012 kJ/mol in series [1] (x1 = 0.1388); -0.057 ± 0.0016 kJ/mol in series [1] (x1 = 0.2057); -0.0792 ± 0.002 kJ/mol in series [1] (x1 = 0.2728); -0.101 ± 0.0025 kJ/mol in series [1] (x1 = 0.3404); -0.12 ± 0.0029 kJ/mol in series [1] (x1 = 0.3992). Further, the excess molar enthalpy is -0.141 ± 0.0033 kJ/mol in series [1] (x1 = 0.4995); -0.144 ± 0.0034 kJ/mol in series [1] (x1 = 0.5964); -0.136 ± 0.0032 kJ/mol in series [1] (x1 = 0.6972); -0.108 ± 0.0026 kJ/mol in series [1] (x1 = 0.7998); -0.0615 ± 0.0017 kJ/mol in series [1] (x1 = 0.9028).

Consider `CCCO` [propan-1-ol], for which the mass density in series [2] was determined as 799.51 ± 0.12 kg/m3. Besides, the refractive index in series [3] was 1.3833 ± 0.0005.

Regarding `OCc1ccccc1` [benzenemethanol] + CCCCCCO, the excess molar enthalpy stood at 0.104 ± 0.0026 kJ/mol in series [1] (x1 = 0.0954); 0.198 ± 0.0045 kJ/mol in series [1] (x1 = 0.1959); 0.271 ± 0.006 kJ/mol in series [1] (x1 = 0.291); 0.324 ± 0.0071 kJ/mol in series [1] (x1 = 0.3901); 0.344 ± 0.0076 kJ/mol in series [1] (x1 = 0.5072); 0.342 ± 0.0075 kJ/mol in series [1] (x1 = 0.598). Also, the excess molar enthalpy in series [1] (x1 = 0.6996) worked out at 0.31 ± 0.0068 kJ/mol; in series [1] (x1 = 0.8022), 0.241 ± 0.0054 kJ/mol; in series [1] (x1 = 0.8986), 0.145 ± 0.0034 kJ/mol.

Consider `OCc1ccccc1` [benzenemethanol] + CCCCCO, for which the excess molar enthalpy in series [1] (x1 = 0.1044) is 0.0957 ± 0.0024 kJ/mol; in series [1] (x1 = 0.1968) it was 0.169 ± 0.0039 kJ/mol; in series [1] (x1 = 0.2902), 0.226 ± 0.0051 kJ/mol; in series [1] (x1 = 0.3864) it was 0.266 ± 0.0059 kJ/mol; in series [1] (x1 = 0.4838), 0.285 ± 0.0063 kJ/mol; in series [1] (x1 = 0.5999), 0.271 ± 0.006 kJ/mol. Further, the excess molar enthalpy in series [1] (x1 = 0.6988) was found to be 0.241 ± 0.0054 kJ/mol; in series [1] (x1 = 0.7995), 0.186 ± 0.0042 kJ/mol; in series [1] (x1 = 0.8992), 0.106 ± 0.0026 kJ/mol.

Regarding `CCCCCCO` [hexan-1-ol], the mass density in series [2] is 815.2 ± 0.64 kg/m3. In series [3], the refractive index is recorded as 1.4165 ± 0.0006.

`OCc1ccccc1` [benzenemethanol] + CCO: the excess molar enthalpy in series [1] (x1 = 0.0746) was 0.0734 ± 0.0019 kJ/mol; in series [1] (x1 = 0.1514) it was 0.131 ± 0.0031 kJ/mol; in series [1] (x1 = 0.2275), 0.171 ± 0.0039 kJ/mol; in series [1] (x1 = 0.3029), 0.198 ± 0.0045 kJ/mol; in series [1] (x1 = 0.3785), 0.214 ± 0.0048 kJ/mol; in series [1] (x1 = 0.4855), 0.223 ± 0.005 kJ/mol. The excess molar enthalpy is 0.208 ± 0.0047 kJ/mol in series [1] (x1 = 0.5857), 0.177 ± 0.004 kJ/mol in series [1] (x1 = 0.6883), 0.129 ± 0.0031 kJ/mol in series [1] (x1 = 0.7915) and 0.0717 ± 0.0019 kJ/mol in series [1] (x1 = 0.8949).

For `CCCCO` [butan-1-ol], in series [2], the mass density is 805.75 ± 0.12 kg/m3. The refractive index in series [3] amounted to 1.3974 ± 0.0005.

Consider `OCc1ccccc1` [benzenemethanol], for which, in series [2], the mass density worked out at 1041.99 ± 0.26 kg/m3. Moreover, the refractive index in series [3] was determined as 1.5381 ± 0.0005.

With `CCCCCO` [pentan-1-ol], the mass density in series [2] came out at 810.88 ± 0.24 kg/m3. Also, the refractive index in series [3] was 1.4088 ± 0.0005.

For the compound `OCc1ccccc1` [benzenemethanol] + CCCO, the excess molar enthalpy in series [1] (x1 = 0.0984) is 0.0486 ± 0.0014 kJ/mol; in series [1] (x1 = 0.1964), 0.0847 ± 0.0021 kJ/mol; in series [1] (x1 = 0.2873) it was 0.106 ± 0.0026 kJ/mol; in series [1] (x1 = 0.3999), 0.124 ± 0.0029 kJ/mol; in series [1] (x1 = 0.4987) it was 0.119 ± 0.0028 kJ/mol; in series [1] (x1 = 0.5993) it was 0.107 ± 0.0026 kJ/mol. For the same compound, the results for the excess molar enthalpy in series [1] (x1 = 0.6983), in series [1] (x1 = 0.7996) and in series [1] (x1 = 0.8988) were 0.0867 ± 0.0022 kJ/mol, 0.0614 ± 0.0017 kJ/mol and 0.0323 ± 0.0011 kJ/mol, respectively.

For the compound `CCO` [ethanol], the mass density in series [2] is reported as 785.15 ± 0.12 kg/m3. For the same compound, the refractive index in series [3] is 1.3595 ± 0.0005.
